Reference: ChEMBL document CHEMBL5500393, “Discovery and Optimization of Novel SaFabI Inhibitors as Specific Therapeutic Agents for MRSA Infection” (J Med Chem, 2024)
In brackets after ≈: the same amount, converted by molar mass. Activity calls are given as the source filed them. The calls are words filed in the database; no cut-off is given here.

Assays:
Staphylococcus aureus [1] = assay: Antimicrobial activity against […] Staphylococcus aureus ATCC33591 assessed as reduction in DNA content measured after 4 hrs by microplate reader based analysis; assay type: functional
[2] = biological target: T1, Enoyl-[acyl-carrier-protein] reductase [NADPH] FabI (Staphylococcus aureus) (UniProt Q6GI75); assay: Inhibition of N-terminal his 6 tagged Staphylococcus aureus Fabi (1 to […] residues) expressed in Escherichia coli BL21 at 1 uM incubated for 30 mins in presence of NADPH by fluorescence based microplate reader analysis relative to control
T1 sequence (whole entry): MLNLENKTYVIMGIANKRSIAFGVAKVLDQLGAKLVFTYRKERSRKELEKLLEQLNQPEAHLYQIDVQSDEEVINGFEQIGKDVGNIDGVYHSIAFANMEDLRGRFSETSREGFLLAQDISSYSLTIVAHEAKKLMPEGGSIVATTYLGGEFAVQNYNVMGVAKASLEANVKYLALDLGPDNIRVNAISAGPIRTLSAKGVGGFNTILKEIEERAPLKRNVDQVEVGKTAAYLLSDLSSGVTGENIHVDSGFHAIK

[3] = biological target: T2, Enoyl-[acyl-carrier-protein] reductase [NADPH] FabI (Staphylococcus aureus, UniProt Q6GI75); assay: Inhibition of N-terminal his 6 tagged Staphylococcus aureus Fabi (1 to […] residues) expressed in Escherichia coli BL21 incubated for 30 mins in presence of NADPH by fluorescence based microplate reader analysis
T2 sequence (Q6GI75 whole entry): T1 sequence (whole entry)

Staphylococcus aureus [4] = assay: Antimicrobial activity against […] Staphylococcus aureus ATCC33591 measured after 24 hrs by CLSI protocol based microdilution method; assay type: functional
Staphylococcus aureus [5] = assay: Antimicrobial activity against […] Staphylococcus aureus ATCC43300 measured after 24 hrs by CLSI protocol based microdilution method; assay type: functional
Staphylococcus aureus [6] = assay: Antimicrobial activity against […] Staphylococcus aureus USA300 measured after 24 hrs by CLSI protocol based microdilution method; assay type: functional
Staphylococcus aureus [7] = assay: Antimicrobial activity against […] Staphylococcus aureus NRS271 measured after 24 hrs by CLSI protocol based microdilution method; assay type: functional
Staphylococcus aureus [8] = assay: Antimicrobial activity against methicillin-susceptible Staphylococcus aureus ATCC29213 measured after 24 hrs by CLSI protocol based microdilution method; assay type: functional
Staphylococcus aureus [9] = assay: Antimicrobial activity against methicillin-susceptible Staphylococcus aureus ATCC25923 measured after 24 hrs by CLSI protocol based microdilution method; assay type: functional
[10] = biological target: T1, Enoyl-[acyl-carrier-protein] reductase [NADPH] FabI (Staphylococcus aureus); assay: Binding affinity to N-terminal his 6 tagged Staphylococcus aureus Fabi (1 to […] residues) expressed in Escherichia coli BL21 assessed as change in melting temperature at 80 uM incubated for 20 mins in presence of NADPH by differential scanning fluorescence assay
Staphylococcus aureus [11] = assay: In vivo antibacterial activity against methicilin-resistant Staphylococcus aureus ATCC33591 infected in BALB/c mouse skin infection model assessed as reduction in skin lesions at 10 mg/kg administered daily for 4 days (reference value: 48.3 mm2); assay type: functional; conditions: time 4 day
Staphylococcus aureus [12] = assay: In vivo antibacterial activity against methicilin-resistant Staphylococcus aureus ATCC33591 infected in BALB/c mouse skin infection model assessed as log reduction in bacterial count at 10 mg/kg administered daily for 4 days; assay type: functional; conditions: time 4 day
Staphylococcus aureus [13] = assay: In vivo antibacterial activity against methicilin-resistant Staphylococcus aureus ATCC33591 infected in BALB/c mouse skin infection model assessed as normal morphology at 10 mg/kg administered daily for 4 days by H and E staining based analysis; assay type: functional, organism-based; conditions: time 4.0 day
Staphylococcus aureus [14] = assay: In vivo antibacterial activity against methicilin-resistant Staphylococcus aureus ATCC33591 infected in BALB/c mouse skin infection model assessed as normal skin structure at 10 mg/kg administered daily for 4 days by H and E staining based analysis; assay type: functional, organism-based; conditions: time 4.0 day
Staphylococcus aureus [15] = assay: Antimicrobial activity against […] Staphylococcus aureus ATCC33591 assessed as frequency of spontaneous resistance at 4 times MIC measured after 48 hrs by; assay type: functional
Staphylococcus aureus [16] = assay: Antimicrobial activity against […] Staphylococcus aureus ATCC33591 assessed as frequency of spontaneous resistance at 8 times MIC measured after 48 hrs by; assay type: functional
Staphylococcus aureus [17] = assay: Antimicrobial activity against […] Staphylococcus aureus ATCC33591 assessed as frequency of spontaneous resistance at 16 times MIC measured after 48 hrs by; assay type: functional

| SMILES | MIC (Staphylococcus aureus [1]) [µg/mL] | inhibition [2] [%] | IC50 [3] [nM] | MIC (Staphylococcus aureus [4]) [µg/mL] | MIC (Staphylococcus aureus [5]) [µg/mL] | MIC (Staphylococcus aureus [6]) [µg/mL] | MIC (Staphylococcus aureus [7]) [µg/mL] | MIC (Staphylococcus aureus [8]) [µg/mL] | MIC (Staphylococcus aureus [9]) [µg/mL] | ΔTm [10] [°C] | Activity (Staphylococcus aureus [11]) [mm2] | log(activity) (Staphylococcus aureus [12]) | Activity (Staphylococcus aureus [13]) | Activity (Staphylococcus aureus [14]) | Activity (Staphylococcus aureus [15]) | Activity (Staphylococcus aureus [16]) | Activity (Staphylococcus aureus [17]) |
| --- | --- | --- | --- | --- | --- | --- | --- | --- | --- | --- | --- | --- | --- | --- | --- | --- | --- |
| C[C@H]1COc2c(N3CCN(C)CC3)c(F)cc3c(=O)c(C(=O)O)cn1c23 [LEVOFLOXACIN ANHYDROUS] | 1 (≈ 2.77 µM) |  |  |  |  |  |  |  |  |  |  |  |  |  |  |  |  |
| Cc1c(Br)cccc1N1C[C@@H](c2nc3ccccc3n2C)CC1=O |  | > 85 | 94 | 0.25 (≈ 0.651 µM) | 0.5 (≈ 1.3 µM) | 0.5 (≈ 1.3 µM) | 1 (≈ 2.6 µM) | 0.5 (≈ 1.3 µM) | 0.5 (≈ 1.3 µM) | 14.3 | 16.1 | 6.8 | Active | Active | 3.8 10^-10No_unit | <2.6 10^-10No_unit | <2.6 10^-10No_unit |
